From PubChem BioAssay (NCI)
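Tested at 5 concentrations; 48 h exposure; 96-well plates; endpoints linearly interpolated, else capped at highest concentration. The concentration for 50% growth inhibition is given as GI50. At the TGI there is no net growth.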

Assays:
Test in all cases: NCI anticancer screen, dose series, 48 h
CAKI-1 renal = tested on: CAKI-1 renal
COLO 205 colon = tested on: COLO 205 colon
HCT-15 colon = tested on: HCT-15 colon
HOP-62 NSCLC = tested on: HOP-62 NSCLC
NCI-H460 lung = tested on: NCI-H460 lung
OVCAR-5 ovarian = tested on: OVCAR-5 ovarian
SF-295 CNS = tested on: SF-295 CNS
SK-OV-3 ovarian = tested on: SK-OV-3 ovarian
SN12C renal = tested on: SN12C renal
HOP-92 NSCLC = tested on: HOP-92 NSCLC

Row | SMILES | TGI (CAKI-1 renal) | TGI (COLO 205 colon) | TGI (HCT-15 colon) | TGI (HOP-62 NSCLC) | TGI (NCI-H460 lung) | TGI (OVCAR-5 ovarian) | TGI (SF-295 CNS) | TGI (SK-OV-3 ovarian) | TGI (SN12C renal) | TGI (HOP-92 NSCLC) | GI50 (CAKI-1 renal) | GI50 (COLO 205 colon) | GI50 (HCT-15 colon) | GI50 (HOP-62 NSCLC) | GI50 (NCI-H460 lung) | GI50 (OVCAR-5 ovarian) | GI50 (SF-295 CNS)
1 | N#Cc1c(NC(=S)Nc2ccc(Cl)cc2)sc2c1CCN(N1CCc3c(sc(NC(=S)Nc4ccc(Cl)cc4)c3C#N)C1)C2 | > 100 µM | 33.4 µM | > 100 µM | 55.2 µM | > 100 µM | 31.1 µM | 50.4 µM | > 100 µM | > 100 µM |  |  |  |  |  |  |  | 
2 | Cc1nc(NC(C)(CO)CO)nc(N/N=C/c2ccc(Cl)cc2)c1C(=O)Nc1ccc(Cl)cc1 | > 100 µM | > 100 µM | > 100 µM | > 100 µM | > 100 µM | > 100 µM | > 100 µM | > 100 µM | > 100 µM |  |  |  |  |  |  |  | 
3 | COC(=O)c1c2c(cc3c1CC1(Cc4cc5c(c(C=O)c4C1)CCC5)C3)CCC2 (stereo not given) | > 100 µM |  | > 100 µM | > 100 µM | > 100 µM | > 100 µM | > 100 µM | > 100 µM |  | 60.7 µM |  |  |  |  |  |  | 
4 | CCOP(=O)(/C=C/n1cc(C)c(=O)[nH]c1=O)OCC | > 100 µM | > 100 µM | > 100 µM | > 100 µM | > 100 µM | > 100 µM | > 100 µM | > 100 µM | > 100 µM |  |  |  |  |  |  |  | 
5 | O=C(O)c1c(CC(Cc2ccc3c(c2)CCC3)C(=O)O)ccc2c1CCC2 (stereo not given) | > 100 µM | > 100 µM | > 100 µM | > 100 µM | > 100 µM | > 100 µM | > 100 µM |  | > 100 µM | > 100 µM |  |  |  |  |  |  | 
6 | CC(Nc1ccc(Cl)cc1)c1ccncc1 (stereo not given) | > 100 µM | > 100 µM | > 100 µM | > 100 µM | > 100 µM | > 100 µM | > 100 µM | 11.8 µM | > 100 µM |  |  |  |  |  |  |  | 
7 | NC(=O)CCC(N=c1c2ccccc2n(O)c2ccccc12)C(=O)O (stereo not given) |  | > 100 µM | > 100 µM | > 100 µM | > 100 µM | > 100 µM | > 100 µM | > 100 µM | > 100 µM |  |  |  |  |  |  |  | 
8 | CCc1nc(N)c2nc(-c3cccs3)oc2n1 | > 100 µM | > 100 µM | > 100 µM | > 100 µM | > 100 µM | > 100 µM | > 100 µM |  | > 100 µM | > 100 µM |  |  |  |  |  |  | 
9 | CC1OC(OC2C(O[C@H]3CC[C@@]4(C)C(=CC[C@H]5[C@@H]6C[C@@H]7O[C@]8(CC[C@@H](C)CO8)[C@@H](C)[C@@H]7[C@@]6(C)CC[C@@H]54)C3)OC(CO)C(O)C2OC2OC(CO)C(O)C(O)C2O)C(O)C(O)C1O (stereo not given in full) | 5.07 µM | 3.41 µM | 4.03 µM | 4.21 µM |  | > 20.6 µM | 4.41 µM | 3.19 µM |  | 3.68 µM |  |  |  |  |  |  | 
10 | CC1=C(CO)C(=O)OC(C(C)C2CCC3C4CC5OC56C(O)C(N5CC5)=CC(=O)C6(C)C4CCC23C)C1 (stereo not given) |  |  | 12.9 µM | 40.7 µM | 25 µM | 31.2 µM | 33.7 µM |  | 19.5 µM | 19.3 µM |  |  |  |  |  |  | 
11 | CN(CCCCCl)P(=O)(OCc1ccc([N+](=O)[O-])o1)OCC1OC(n2ccc(N)nc2=O)C(O)C1O (stereo not given) | > 100 µM | 2.69 µM | > 100 µM | 66.8 µM | 68.3 µM | > 100 µM | 57.7 µM | 38.3 µM | 33.7 µM |  |  |  |  |  |  |  | 
12 | N[C@@H](CCC(=O)NC(Cc1ccccc1)C(=O)NCP(=O)(O)O)C(=O)O (stereo not given in full) |  | > 100 µM | > 100 µM | > 100 µM | > 100 µM | > 100 µM | > 100 µM |  | > 100 µM |  |  |  |  |  |  |  | 
13 | Nc1c(C(=O)c2ccc(Cl)c(Cl)c2)[nH]c(NCc2ccccc2)c1C(=S)Nc1ccccc1 | 32.2 µM | 3.79 µM | 6.27 µM | 34.7 µM | 20.7 µM | 28.2 µM | 15 µM | 32.2 µM | 29.2 µM |  |  |  |  |  |  |  | 
14 | FC1=C2C3CCC(C3)C2C1(F)F (stereo not given) | > 100 µM | > 100 µM | > 100 µM | > 100 µM | > 100 µM | > 100 µM | > 100 µM | > 100 µM | > 100 µM |  |  |  |  |  |  |  | 
15 | CCC1(O)CC(CCN(Cc2ccccc2)C(=O)OCc2ccccc2)C(OCc2ccccc2)C1O (stereo not given) | 65.7 µM | 34.2 µM | 31.7 µM | 29.6 µM | 31.3 µM | 41.2 µM | 28.2 µM | 34.6 µM | 82 µM |  |  |  |  |  |  |  | 
16 | CC(=O)n1[nH]c(=O)n(-c2ccc(Cl)cc2)c1=O | > 100 µM | > 100 µM | > 100 µM | > 100 µM | > 100 µM | > 100 µM | > 100 µM | > 100 µM | > 100 µM |  |  |  |  |  |  |  | 
17 | O=C1NC(O)c2cc3ccccc3cc2O1 (stereo not given) |  | > 100 µM | > 100 µM | > 100 µM | > 100 µM | > 100 µM | > 100 µM | > 100 µM | > 100 µM | 90.7 µM |  |  |  |  |  |  | 
18 | O=C1c2cc3c(cc2-c2c1c1cc(F)c(F)cc1c(=O)n2CCCn1ccnc1)OCO3 | 1.42 µM | 1.62 µM | > 100 µM | 0.0477 µM | 0.199 µM | > 100 µM | 0.0133 µM |  |  |  | < 10 nM | 29.3 nM | 117 nM | < 10 nM | < 10 nM | 83.2 nM | < 10 nM
